From paper PMC9412414, “A Study on Repositioning Nalidixic Acid via Lanthanide Complexation: Synthesis, Characterization, Cytotoxicity and DNA/Protein Binding Studies” (Pharmaceuticals, 2022)

Columns and labels:
[1] = system: LoVo (human colorectal adenocarcinoma) cell line; test: MTS cytotoxicity assay, LoVo cell line; assay type: cell-based; conditions: 48 h of incubation
Description: (§1) LoVo, MDA-MB-231 and HUVEC human cell lines were purchased from American Type Culture Collection (ATCC). Cells were routinely maintained in culture either in culture flasks or seeded in plates, using Dulbecco’s modified Eagle medium/nutrient mixture F-12 (DMEM:F12) medium supplemented with […], 10% fetal calf serum (Sigma Aldrich, St. Louis, MO, USA), 100 units/mL penicillin, 100 μg/mL streptomycin and incubated at 37 °C in 5% CO2 humidified atmosphere.
(§2) Cytotoxicity studies were performed in 96-well microtiter plates with flat bottoms (Falcon, Teterboro, NJ, USA) using the CellTiter 96 Aqueous One Solution Cell Proliferation Assay (Promega, Madison, WI, USA), an MTS-based colorimetric assay. Metabolically active cells have the ability to reduce MTS [3-(4,5-dimethylthiazol-2-yl)-5-(3-carboxymethoxyphenyl)-2-(4-sulfophenyl)-2H-tetrazolium, inner salt], a yellow tetrazolium salt, to a colored formazan that is soluble in the culture medium. Briefly, 15 × 10^3 cells per well were cultured in 100 µL culture medium. After 24 h, adherent cells were treated with different concentrations of the studied compounds, as well as adriamycin (Adr) and cisplatin (Cis-Pt), used as positive controls for 24 h and 48 h, respectively. Each well was then filled with 20 µL of reagent containing MTS and PES (phenazine ethosulfate, a cationic dye with excellent chemical stability that binds to MTS and produces a stable solution). The resulting formazan was determined using a Tecan GENios Spectrophotometer (Tecan US, Durham, NC, USA) by measuring the absorbance at λ = 492 nm after incubation for 4 h at 37 °C with moderate agitation every 15 min. The cytotoxicity tests were performed in triplicate, with results reported as mean values with standard deviations (SD). The cytotoxicity of DMSO was also investigated under the same conditions, and no harmful effect was found at doses less than 1%.
(§3) Data were expressed as cell viability by comparing with untreated cells considered 100% viable, using the following formula:(1) Cell viability (%)=absorbance of treated cells−absorbance of culture medium/absorbance of untreated cells−absorbance of culture medium

apotransferrin (apo-Tf) = target: T1, apotransferrin (apo-Tf) (Homo sapiens, UniProt P02787); test: Apo-Tf fluorescence quenching binding study; conditions: for Ka (association binding constant), Apo-Tf / n1 (Number of Binding Sites), Apo-Tf / Kd / fa (fraction of fluorophore accessible to the quencher), Apo-Tf / Ksv* (Stern–Volmer quenching constant), Apo-Tf / quenching effect on apo-Tf fluorescence peak / n2 (Hill Coefficient), Apo-Tf: apo-Tf 1 µM; for Ka (association binding constant), Apo-Tf / n1 (Number of Binding Sites), Apo-Tf / Kd / fa (fraction of fluorophore accessible to the quencher), Apo-Tf / Kq (bimolecular quenching constant), Apo-Tf / n2 (Hill Coefficient), Apo-Tf: 298 K; for Kd: read-out: Kd (dissociation constant), Apo-Tf; for fa (fraction of fluorophore accessible to the quencher), Apo-Tf / Ksv* (Stern–Volmer quenching constant), Apo-Tf: compound 0–8 µM; for Ksv* (Stern–Volmer quenching constant), Apo-Tf: Tris-HCl pH 7.4, 298 K; for Kq (bimolecular quenching constant), Apo-Tf: from Ksv* with τ0 = 10^−8 s; for quenching effect on apo-Tf fluorescence peak: compound up to 8 µM
T1 construct: purchased Sigma-Aldrich Chemical Co. (Schnelldorf, Germany)
Description: (§4) Using a Jasco FP 6500 spectrofluorometer (Jasco, Tokyo, Japan) and quartz cells with a 1 cm path length, the fluorescence spectra of HSA and apo-Tf were recorded in the presence and absence of the examined substances. The 2.5 mL samples containing 2.5 µM HSA or 1 µM apo-Tf were titrated by adding 5 µL of the tested substance at a time, a volume that corresponded to a 1 µM increase in concentration. The concentration range used for these experiments varied from 0 to 8 µM. The relevant spectra were collected in the emission domains of 300–500 nm (HSA) and 305–500 nm (apo-Tf) after 3 min of continuous stirring at room temperature, using excitation wavelengths of 280 nm (HSA) and 295 nm (apo-Tf).
(§5) Experiments were conducted in a pH = 7.4 Tris-HCl buffer (5 mM Tris-HCl/50 mM NaCl for HSA and 5 mM Tris-HCl/50 mM NaCl/25 mM NaHCO3 for apo-Tf).
(§6) The following modified Stern–Volmer equation has been used to calculate the Stern–Volmer constant, which will be denoted as KSV* in order to differentiate it from the Stern–Volmer constant calculated for the DNA binding experiments:(5) F0/F0−F=1/faKsv*[Q]+1/fa where F0 and F are the fluorescence intensities in the absence and presence of the tested compounds, fa is the fraction of fluorophore accessible to the quencher (the tested compounds), [Q] is the quencher concentration, and KSV* (M^−1) is the Stern–Volmer constant; the plot of F0/(F0 − F) against 1/[Q] yields KSV as the slope and fa as the y intercept.
(§7) Subsequently, the bimolecular quenching rate constant was obtained by using Equation (6):(6) Ksv^*=Kqτ0
(§8) Kq (M^−1·s^−1) is the bimolecular quenching rate constant and τ0 is the fluorophore’s lifespan in the absence of the investigated chemicals (10^−8 s). The value of Kq can be used to assess whether the quenching phenomena have an underlying static or dynamic mechanism.
(§9) Using the following equation, the affinity constant (Ka) and the number of binding sites (n) have been calculated: (7) lgF0−F/F=lgKa+nlg[Q]
(§10) The binding affinity, Kd, can be calculated using the quadratic function below:(8) F0−F/F0−Fb=[P]t+[Q]+Kd−([P]t+[Q]+Kd)^2−4[P]t[Q]/2[P]t where F and F0 are the fluorescence intensities of the protein in the presence and absence of the quencher, respectively, Fb is the fluorescence of a fully bound protein–quencher, [P]t is the total concentration of the protein, and [Q] is the concentration of the added quencher. Each binding isotherm was plotted against the total quencher concentration in solution as a function of bound to free protein (F/F0).
(§11) The isotherms were then fitted using the nonlinear regression function below:(9) F/F0= F1+(F2−F1)Kdn/Kdn+[Q]^n where n represents the Hill coefficient, F1 and F2 are the horizontal and vertical asymptotes, respectively. The Kd in Equation (9) is derived from the quadratic binding function (Equation (8)).
(§12) Data were collected in triplicate, averaged, and expressed as mean value ± standard deviation (SD). All graph fitting models were defined and built using OriginPro® 2018.

[2] = target: T2, human serum albumin (HSA) (Homo sapiens, UniProt P02768); test: HSA fluorescence quenching binding study; conditions: for Ka (association binding constant), HSA / n1 (Number of Binding Sites), HSA / n2 (Hill Coefficient), HSA / Kd / fa (fraction of fluorophore accessible to the quencher), HSA / Ksv* (Stern–Volmer quenching constant), HSA / quenching effect on HSA fluorescence peak: HSA 2.5 µM; for Ka (association binding constant), HSA / n1 (Number of Binding Sites), HSA / n2 (Hill Coefficient), HSA / Kd / fa (fraction of fluorophore accessible to the quencher), HSA / Kq (bimolecular quenching constant), HSA: 298 K; for Kd: read-out: Kd (dissociation constant), HSA; for fa (fraction of fluorophore accessible to the quencher), HSA / Ksv* (Stern–Volmer quenching constant), HSA: compound 0–8 µM; for Kq (bimolecular quenching constant), HSA: from Ksv* with τ0 = 10^−8 s; for Ksv* (Stern–Volmer quenching constant), HSA: Tris-HCl pH 7.4, 298 K; for quenching effect on HSA fluorescence peak: compound up to 8 µM
T2 construct: purchased Sigma-Aldrich Chemical Co. (Schnelldorf, Germany)
Description: as §4, §5, §6, §7, §8, §9, §10, §11, §12

EB–DNA system (CT-DNA) = test: Competitive binding assay with ethidium bromide (EB) through fluorescence spectroscopy; parameters: species or system calf; conditions: EB 2 µM, CT-DNA 10 µM, compound 0–40 µM
Description: The fluorescence spectra were recorded using 1.6 mL samples containing 10 µM CT-DNA, 2 µM EB, and increasing amounts (0–40 µM with an increment of 5 µM) of tested compounds; the samples were prepared by keeping the components in contact for 10 min at room temperature, under continuous stirring and in the dark. The excitation wavelength was 500 nm, and the spectra were recorded between the wavelengths of 520 and 800 nm. A Jasco FP 6500 fluorometer and quartz cells with a 1 cm route length were employed. The classical Stern–Volmer equation (Equation (3)) was used to interpret the obtained data:(3) F0/F=1+KSV·[Q] F0 and F are the fluorescence intensities of the EB–DNA samples in the absence and presence of the tested compounds, respectively; KSV is the Stern–Volmer constant, which was computed as the slope from the plot of F0/F vs. [Q], where [Q] is the chemical concentration.
The binding ratio was plotted against the logarithm of the concentration in comparison with a control sample exposed solely to DMSO. (4) y=A1+(A2−A1)×x^n/K50^n+x^n
For fitting data points, the modified Hill function with offset (Origin®) was used: where y represents the binding ratio (F/F0), x represents the concentration, A1 represents the minimum of y values, A2 represents the maximum of y values, K50 represents the concentration corresponding to 50% binding or the half maximum binding constant, and n represents the Hill coefficient.

[3] = system: HUVEC (human umbilical vein endothelial cells); test: MTS cytotoxicity assay, HUVEC normal cell line; assay type: cell-based; conditions: 24 h of incubation
Description: as §1, §2, §3

T1 sequence (P02787 20-698): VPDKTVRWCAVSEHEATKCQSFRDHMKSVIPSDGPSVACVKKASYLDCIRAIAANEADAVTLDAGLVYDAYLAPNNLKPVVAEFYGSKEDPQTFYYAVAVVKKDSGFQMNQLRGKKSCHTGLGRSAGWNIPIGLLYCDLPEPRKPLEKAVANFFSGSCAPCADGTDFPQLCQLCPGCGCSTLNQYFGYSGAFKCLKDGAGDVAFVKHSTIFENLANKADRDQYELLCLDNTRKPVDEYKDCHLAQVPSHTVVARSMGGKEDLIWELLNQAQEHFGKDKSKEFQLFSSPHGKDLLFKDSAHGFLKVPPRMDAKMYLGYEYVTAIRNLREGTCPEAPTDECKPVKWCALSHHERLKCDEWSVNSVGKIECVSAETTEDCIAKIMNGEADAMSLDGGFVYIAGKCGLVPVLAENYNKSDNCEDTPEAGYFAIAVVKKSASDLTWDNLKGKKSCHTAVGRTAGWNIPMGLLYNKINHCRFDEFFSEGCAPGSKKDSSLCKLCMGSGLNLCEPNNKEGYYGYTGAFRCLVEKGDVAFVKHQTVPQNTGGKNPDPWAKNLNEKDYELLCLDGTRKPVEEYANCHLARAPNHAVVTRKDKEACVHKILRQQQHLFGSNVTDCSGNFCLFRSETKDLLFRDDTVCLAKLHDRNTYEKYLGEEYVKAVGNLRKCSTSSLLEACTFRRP
T2 sequence (P02768 25-609): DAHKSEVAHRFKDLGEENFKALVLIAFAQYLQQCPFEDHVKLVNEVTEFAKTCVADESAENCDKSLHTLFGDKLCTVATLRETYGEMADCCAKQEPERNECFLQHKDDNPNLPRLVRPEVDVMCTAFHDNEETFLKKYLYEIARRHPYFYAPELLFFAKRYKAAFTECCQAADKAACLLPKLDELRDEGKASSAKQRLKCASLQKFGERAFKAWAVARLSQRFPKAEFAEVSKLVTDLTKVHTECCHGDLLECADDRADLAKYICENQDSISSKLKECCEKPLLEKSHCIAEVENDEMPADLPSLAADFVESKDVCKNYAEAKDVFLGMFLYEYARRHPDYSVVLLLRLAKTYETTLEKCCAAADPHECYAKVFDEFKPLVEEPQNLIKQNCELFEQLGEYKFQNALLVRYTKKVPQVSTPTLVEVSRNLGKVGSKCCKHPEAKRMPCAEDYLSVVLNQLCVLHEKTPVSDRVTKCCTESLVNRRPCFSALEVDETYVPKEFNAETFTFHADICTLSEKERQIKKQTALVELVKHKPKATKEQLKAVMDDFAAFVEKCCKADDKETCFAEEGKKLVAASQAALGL

Compound | IC50 [1] [µM] | Ka (association binding constant), Apo-Tf (apotransferrin (apo-Tf)) | n1 (Number of Binding Sites), Apo-Tf (apotransferrin (apo-Tf)) | Kd (apotransferrin (apo-Tf)) [µM] | fa (fraction of fluorophore accessible to the quencher), Apo-Tf (apotransferrin (apo-Tf)) | Ksv* (Stern–Volmer quenching constant), Apo-Tf (apotransferrin (apo-Tf)) | Kq (bimolecular quenching constant), Apo-Tf (apotransferrin (apo-Tf)) [M⁻¹ s⁻¹] | Ka (association binding constant), HSA [2] | n1 (Number of Binding Sites), HSA [2] | n2 (Hill Coefficient), HSA [2] | Kd [2] [µM] | fa (fraction of fluorophore accessible to the quencher), HSA [2] | Kq (bimolecular quenching constant), HSA [2] [M⁻¹ s⁻¹] | EB Displacement Assay K50 (half maximum binding constant) (EB–DNA system (CT-DNA)) [µM] | KSV, Stern–Volmer quenching constant (EB–DNA) (EB–DNA system (CT-DNA)) | IC50 [3] [µM] | quenching effect on apo-Tf fluorescence peak (apotransferrin (apo-Tf)) [%] | Ksv* (Stern–Volmer quenching constant), HSA [2] | quenching effect on HSA fluorescence peak [2] | n2 (Hill Coefficient), Apo-Tf (apotransferrin (apo-Tf)) | further results
Tb(C12H11N2O3)3(H2O)2·1.5H2O [Tb(nal)3] | 25.6 ± 6.97 | (1.63 ± 0.42) × 10^4 M^−1 | 0.83 ± 0.02 | 5.76 ± 2.6 | 0.68 ± 0.01 | (2.70 ± 0.11) × 10^5 M^−1 | 2.7e+13 | (31.26 ± 9.66) × 10^5 M^−1 | 1.18 ± 0.02 | 0.89 ± 0.35 | 4.61 ± 1.67 | 1.13 ± 0.02 | 2.39e+13 | 31.96 ± 10.16 | 8.35 ± 0.11 M^−1 (×10^3) | 96.2 ± 48.8 |  |  |  |  | 
CCn1cc(C(=O)[O-])c(=O)c2ccc(C)nc21.CCn1cc(C(=O)[O-])c(=O)c2ccc(C)nc21.O.O.O.O.[Eu+3].[OH-] [Eu(nal)2, Eu(C12H11N2O3)2(OH)(H2O)·3H2O] | > 200 | (1.02 ± 0.13) × 10^4 M^−1 | 0.80 ± 0.01 | 7.07 ± 6.13 | 0.71 ± 0.01 | (1.85 ± 0.06) × 10^5 M^−1 | 1.85e+13 | (11.99 ± 1.38) × 10^5 M^−1 | 1.13 ± 0.01 | 1.14 ± 0.27 | 4.63 ± 0.97 | 1.17 ± 0.04 |  | 34.75 ± 3.69 | 8.35 ± 0.13 M^−1 (×10^3) | > 200 | 41 | (1.75 ± 0.11) × 10^5 M^−1 | 67% |  | IC50 (μM) LoVo [1]: not toxic
CCn1cc(C(=O)[O-])c(=O)c2ccc(C)nc21.CCn1cc(C(=O)[O-])c(=O)c2ccc(C)nc21.O.O.O.O.[OH-].[Sm+3] [Sm(nal)2, Sm(C12H11N2O3)2(OH)(H2O)·3H2O] | 92.4 ± 16 | (10.17 ± 6.14) × 10^4 M^−1 | 1.01 ± 0.05 | 6.16 ± 1.27 | 0.79 ± 0.02 | (1.16 ± 0.06) × 10^5 M^−1 | 1.16e+13 | (8.25 ± 1.62) × 10^5 M^−1 | 1.08 ± 0.01 | 1.34 ± 0.09 | 3.6 ± 0.11 | 1.05 ± 0.02 | 2.5e+13 | 31.35 ± 4.21 | 10.24 ± 0.22 M^−1 (×10^3) | > 200 | 35 | (2.50 ± 0.12) × 10^5 M^−1 | ~ 73% | 1.71 ± 0.31 | 
Gd(C12H11N2O3)3(H2O)2·1.5H2O [Gd(nal)3] | 28.4 ± 7.95 | (2.63 ± 0.39) × 10^4 M^−1 | 0.87 ± 0.01 | 5.86 ± 0.72 | 0.82 ± 0.02 | (1.78 ± 0.07) × 10^5 M^−1 | 1.78e+13 | (19.61 ± 1.83) × 10^5 M^−1 | 1.14 ± 0.01 | 1.35 ± 0.12 | 3.27 ± 0.11 | 1.10 ± 0.00 | 2.69e+13 | 31.88 ± 7.73 | 9.86 ± 0.19 M^−1 (×10^3) | 58.4 ± 29.3 |  | (2.69 ± 0.05) × 10^5 M^−1 |  | 1.22 ± 0.12 | 
N.N.[Cl][Pt][Cl] [Cis-Pt, cisplatin, reference compound] | 38.6 ± 4.63 |  |  |  |  |  |  |  |  |  |  |  |  |  |  | 78.5 ± 16 |  |  |  |  | 
